Assays:
Staph. aureus = assay: MIC (CMI) determination in liquid medium; format: cell-based; conditions: pH5, substance alone, 72 h incubation at 30°C
Procedure: (§1) On a déterminé les CMI en milieu liquide, avec un temps d'incubation de 72 heures à 30°C, à […] (bouillon Trypticase soja tamponné), du Lipacide™ UG seul, du conservateur testé seul, ainsi que du mélange des deux produits La comparaison des résultats consignés dans les tableaux suivants fait apparaître nettement une synergie anti-microbienne qui autorise ainsi une réduction de la concentration nécessaires en conservateurs chimique dans les compositions.
(§2) La composition A est diluée dans l'eau pour obtenir la composition A2 contenant 0,05 % en poids d'undécylènoyl glycine et 0,05 % en poids d'octanoyl glycine et la composition A3 contenant 0,125 % en poids d'undécylènoyl glycine et 0,125 % en poids d'octanoyl glycine.
(§3) On obtient les résultats suivants (CMI à pH5).

Aspergillus Niger = assay: MIC (CMI) determination in liquid medium; format: cell-based; conditions: pH5, substance alone, 72 h incubation at 30°C
Procedure: as §1, §2, §3

SMILES | CMI (Staph. aureus) | CMI (Aspergillus Niger)
CCCCCCCC(=O)NCC(=O)O [octanoyl glycine] | 0,025% | 2,5%
C=CCCCCCCCCC(=O)NCC(=O)O [undécylènoyl glycine] | 0,01% | 0,25%

— patent publication EP0983055B1, “COMPOSITION COMPRISING AN AMINO ACID N-UNDECYLENOYL; APPLICATION IN COSMETICS” (SOCIETE D'EXPLOITATION DE PRODUITS POUR LES INDUSTRIES …, priority 1997, dated 1999)
